Data from US11572341B2, “Biguanide compound and use thereof” (ImmunoMet Therapeutics Inc., priority 2014, dated 2023).
Structures can show the parent of a compound that is named as a salt.

Columns and labels:
HCT116 cells = assay: Inhibitory effect against cancer cell proliferation (MTT); type: cell-based, human; details: Homo sapiens, HCT-116; HCT116, MTT, 48 hours; read-out: IC50 (uM) @ HCT116
Description: The formazane crystals thus formed were dissolved using dimethyl sulfoxide (DMSO) and absorbance of the solution was measured at 560 nm. After culturing for 48 hours, […] synthesized in Examples was indicated as cell viability (%) according to each treated concentration.

AMPKa [pT172] = assay: AMPKa activation [pT172] in MCF7 cell; type: cell-based

Row | Compound | IC50 (HCT116 cells) | AMPKa activation [pT172] (Unit/ml) @ MCF7 cell (AMPKa [pT172]; 5 uM) | AMPKa activation [pT172] (Unit/ml) @ MCF7 cell (AMPKa [pT172]; 10 uM) | AMPKa activation [pT172] (Unit/ml) @ MCF7 cell (AMPKa [pT172]; 50 uM)
1 | CN1CCN(C(=N)NC(=N)Nc2cccc(F)c2)CC1.Cl [Example 28, N1-(4-methyl)piperazin-N5-(3-fluoro)phenyl Biguanide Hydrochloride] | > 100 µM | 7.7 Unit/ml | 9.2 Unit/ml | 7.9 Unit/ml
2 | CN1CCN(C(=N)NC(=N)Nc2cccc(Cl)c2)CC1.Cl [Example 29, N1-(4-methyl)piperazin-N5-(3-chloro)phenyl Biguanide Hydrochloride] | > 100 µM | 4.0 Unit/ml | 5.4 Unit/ml | 6.8 Unit/ml
3 | CN1CCN(C(=N)NC(=N)Nc2ccccc2Cl)CC1.Cl [Example 30, N1-(4-methyl)piperazin-N5-(2-chloro)phenyl Biguanide Hydrochloride] | > 100 µM | 4.2 Unit/ml | 4.0 Unit/ml | 4.2 Unit/ml
4 | CN1CCN(C(=N)NC(=N)NCc2ccc(Cl)cc2)CC1.Cl [Example 31, N1-(4-methyl)piperazin-N5-(4-chloro)benzyl Biguanide Hydrochloride] | > 100 µM | 2.5 Unit/ml | 3.6 Unit/ml | 6.1 Unit/ml
5 | CN1CCN(C(=N)NC(=N)NCc2ccccc2Cl)CC1.Cl [Example 32, N1-(4-methyl)piperazin-N5-(2-chloro)benzyl Biguanide Hydrochloride] | > 100 µM | 5.5 Unit/ml | 5.2 Unit/ml | 5.3 Unit/ml
6 | CN1CCN(C(=N)NC(=N)Nc2ccc(F)cc2)CC1.Cl [Example 33, N1-(4-methyl)piperazin-N5-(4-fluoro)phenyl Biguanide Hydrochloride] | > 100 µM | 3.8 Unit/ml | 3.3 Unit/ml | 4.3 Unit/ml
7 | CN1CCN(C(=N)NC(=N)NCc2cccc(Cl)c2)CC1.Cl [Example 35, N1-(4-methyl)piperazin-N5-3-chloro)benzyl Biguanide Hydrochloride] | > 100 µM | – | – | –
8 | CN1CCN(C(=N)NC(=N)Nc2ccc(F)c(F)c2)CC1.Cl [Example 38, N1-(4-methylpiperazin-N5-(3,4-difluoro)phenyl Biguanide Hydrochloride] | > 100 µM | – | – | –
9 | Cl.N=C(NCc1ccc(OC(F)(F)F)cc1)NC(=N)Nc1cccnc1 [Example 42, Hydrochloride] | 23.7 µM | – | – | –
10 | CC1CCN(C(=N)NC(=N)Nc2ccc(Cl)cc2)CC1.Cl [Example 55, N1-4-methyl)piperidin-N5-(4-chloro)phenyl Biguanide Hydrochloride] | 10.4 µM | – | – | –
11 | Cl.N=C(NC(=N)N1CCCC1)Nc1ccc(Br)cc1 [Example 72, N1-pyrrolidin-N5-4-bromo)phenyl Biguanide Hydrochloride] | 37.7 µM | – | – | –
12 | C/N=C(\NCc1ccccc1)NC(=N)N(C)C [Example 96, N1-benzyl-N2-methyl-N5,N5-dimethyl Biguanide Hydrochloride] | 8.2 µM | – | – | –
13 | C/N=C(\NCCc1ccccc1)NC(=N)N(C)C [Example 97, N1-phenethyl-N2-methyl-N5,N5-dimethyl Biguanide Hydrochloride] | 7.5 µM | – | – | –
14 | Cl.N=C(N)NC(=N)N1CCOCC1 [Example 118, Hydrochloride] | > 100 µM | – | – | –
15 | Cl.N=C(N)NC(=N)Nc1ccc(OC(F)(F)F)cc1 [Example 140, Hydrochloride] | 100 µM | – | – | –
